Reference: US20260248135A1, “HERBICIDAL COMBINATIONS AND A METHOD FOR CONTROLLING UNDESIRED VEGETATION” (UPL Mauritius Limited, priority 2022, published 2026)

Tests used:
Assay type in all cases: in vivo
Brachiaria decumbens [1] = test: Post-emergence herbicidal efficacy, Example 3 (L-glufosinate ammonium, saflufenacil and 2,4-D)
Protocol: (§1) Methodology: Trials were carried out to evaluate the efficacy of the combination comprising L-glufosinate ammonium and additional herbicides on Brachiaria decumbens weed.
(§2) The soil used was sandy clay loam-sand: 68.0%; silt: 8.0%; clay: 24.0%.
(§3) All treatments were in 3 replications per treatment with a spray volume of about 150 L/ha.
(§4) The expected efficacy of a combination of L-glufosinate ammonium and the other herbicides was calculated using the well-established Colby method. Any difference between the observed and “expected” efficacy could be attributed to synergy between the two compounds.
(§5) In the Colby method, the expected (or predicted) response of a combination of herbicides is calculated by taking the product of the observed response for each individual component of the combination when applied alone, divided by 100, and subtracting this value from the sum of the observed response for each component when applied alone. An unexpected enhancement in efficacy of the combination is then determined by comparing the observed response of the combination to the expected (or predicted) response as calculated from the observed response of each individual component alone. If the observed response of the combination is greater than the expected (or predicted) response, or stated conversely, if the difference between the observed and expected response is greater than zero, then the combination is said to be synergistic or unexpectedly effective (Colby, S. R., Weeds, 1967 (15), p. 20-22). The Colby method requires only a single dose of each herbicide applied alone and the mixture of both doses. The formula used to calculate the expected efficacy (EE) which was compared with the observed efficacy (OE) to determine the efficacy of the present disclosure is explained hereinbelow:
(§6) The expected efficacy for a combination of three active ingredients is as follows:
(§7) wherein, • A=Observed efficacy of active ingredient A at the same concentration as used in the mixture. • B=Observed efficacy of the active ingredient B at the same concentration as used in the mixture. • C=Observed efficacy of the active ingredient C at the same concentration as used in the mixture.
Experiment was conducted to assess the efficacy of the herbicidal combination comprising L-glufosinate ammonium, saflufenacil and 2,4-D to control the weed Brachiaria decumbens.
The target weed was Brachiaria decumbens, and the concentration of the herbicide and the results are recorded in Table 4.

Brachiaria decumbens [2] = test: Post-emergence herbicidal efficacy, Example 2 (L-glufosinate ammonium, saflufenacil and triclopyr)
Protocol: as §1, §2, §3, §4, §5, §6, §7
Experiment was conducted to assess the efficacy of the herbicidal combination comprising L-glufosinate ammonium, saflufenacil and triclopyr to control the weed Brachiaria decumbens.
The percentage efficacy was calculated after 3, 7, 14, 21, 28 and 35 days of application (DAA). The target weed was Brachiaria decumbens, and the concentration of the herbicide and the results are recorded in Table 3.

Brachiaria decumbens [3] = test: Post-emergence herbicidal efficacy, Example 1 (L-glufosinate ammonium and saflufenacil)
Protocol: as §1, §2, §3, §4, §5
The expected efficacy for a combination of two active ingredients is as follows:
as §7
Experiment was conducted to assess the efficacy of the herbicidal combination comprising L-glufosinate ammonium and saflufenacil to control Brachiaria decumbens.
The percentage efficacy was calculated after 3, 7, 14, 21, 28 and 35 days of applications (DAA). The target weed was Brachiaria decumbens, and the results are recorded in Table 2.

O=C(O)COc1ccc(Cl)cc1Cl [2,4-D]
Observed efficacy (%) of 2,4-D (228 g a.i./ha) (Brachiaria decumbens [1]; 3 DAA): 0% | Observed efficacy (%) of 2,4-D (228 g a.i./ha) (Brachiaria decumbens [1]; 7 DAA): 0% | Observed efficacy (%) of 2,4-D (228 g a.i./ha) (Brachiaria decumbens [1]; 14 DAA): 0% | Observed efficacy (%) of 2,4-D (228 g a.i./ha) (Brachiaria decumbens [1]; 21 DAA): 0% | Observed efficacy (%) of 2,4-D (228 g a.i./ha) (Brachiaria decumbens [1]; 28 DAA): 0% | Observed efficacy (%) of 2,4-D (228 g a.i./ha) (Brachiaria decumbens [1]; 35 DAA): 0%

CP(=O)(O)CC[C@H](N)C(=O)O.N [L-glufosinate ammonium]
Observed efficacy (%) of L-glufosinate ammonium (150 g a.i./ha) (Brachiaria decumbens [2]; 3 DAA): 65% | Observed efficacy (%) of L-glufosinate ammonium (150 g a.i./ha) (Brachiaria decumbens [2]; 7 DAA): 75% | Observed efficacy (%) of L-glufosinate ammonium (150 g a.i./ha) (Brachiaria decumbens [2]; 14 DAA): 75% | Observed efficacy (%) of L-glufosinate ammonium (150 g a.i./ha) (Brachiaria decumbens [2]; 21 DAA): 70% | Observed efficacy (%) of L-glufosinate ammonium (150 g a.i./ha) (Brachiaria decumbens [2]; 28 DAA): 65% | Observed efficacy (%) of L-glufosinate ammonium (150 g a.i./ha) (Brachiaria decumbens [2]; 35 DAA): 60% | Observed efficacy (%) of L-glufosinate ammonium (150 g a.i./ha) (Brachiaria decumbens [3]; 3 DAA): 65% | Observed efficacy (%) of L-glufosinate ammonium (150 g a.i./ha) (Brachiaria decumbens [3]; 7 DAA): 75% | Observed efficacy (%) of L-glufosinate ammonium (150 g a.i./ha) (Brachiaria decumbens [3]; 14 DAA): 75% | Observed efficacy (%) of L-glufosinate ammonium (150 g a.i./ha) (Brachiaria decumbens [3]; 21 DAA): 70% | Observed efficacy (%) of L-glufosinate ammonium (150 g a.i./ha) (Brachiaria decumbens [3]; 28 DAA): 60% | Observed efficacy (%) of L-glufosinate ammonium (150 g a.i./ha) (Brachiaria decumbens [3]; 35 DAA): 55% | Observed efficacy (%) of L-glufosinate ammonium (150 g a.i./ha) (Brachiaria decumbens [1]; 3 DAA): 65% | Observed efficacy (%) of L-glufosinate ammonium (150 g a.i./ha) (Brachiaria decumbens [1]; 7 DAA): 75% | Observed efficacy (%) of L-glufosinate ammonium (150 g a.i./ha) (Brachiaria decumbens [1]; 14 DAA): 75% | Observed efficacy (%) of L-glufosinate ammonium (150 g a.i./ha) (Brachiaria decumbens [1]; 21 DAA): 70% | Observed efficacy (%) of L-glufosinate ammonium (150 g a.i./ha) (Brachiaria decumbens [1]; 28 DAA): 65% | Observed efficacy (%) of L-glufosinate ammonium (150 g a.i./ha) (Brachiaria decumbens [1]; 35 DAA): 60%

CC(C)N(C)S(=O)(=O)NC(=O)c1cc(-n2c(=O)cc(C(F)(F)F)n(C)c2=O)c(F)cc1Cl [Saflufenacil]
Observed efficacy (%) of Saflufenacil (30 g a.i./ha) (Brachiaria decumbens [2]; 3 DAA): 30% | Observed efficacy (%) of Saflufenacil (30 g a.i./ha) (Brachiaria decumbens [2]; 7 DAA): 30% | Observed efficacy (%) of Saflufenacil (30 g a.i./ha) (Brachiaria decumbens [2]; 14 DAA): 20% | Observed efficacy (%) of Saflufenacil (30 g a.i./ha) (Brachiaria decumbens [2]; 21 DAA): 5% | Observed efficacy (%) of Saflufenacil (30 g a.i./ha) (Brachiaria decumbens [2]; 28 DAA): 0% | Observed efficacy (%) of Saflufenacil (30 g a.i./ha) (Brachiaria decumbens [2]; 35 DAA): 0% | Observed efficacy (%) of Saflufenacil (30 g a.i./ha) (Brachiaria decumbens [3]; 3 DAA): 30% | Observed efficacy (%) of Saflufenacil (30 g a.i./ha) (Brachiaria decumbens [3]; 7 DAA): 30% | Observed efficacy (%) of Saflufenacil (30 g a.i./ha) (Brachiaria decumbens [3]; 14 DAA): 25% | Observed efficacy (%) of Saflufenacil (30 g a.i./ha) (Brachiaria decumbens [3]; 21 DAA): 10% | Observed efficacy (%) of Saflufenacil (30 g a.i./ha) (Brachiaria decumbens [3]; 28 DAA): 0% | Observed efficacy (%) of Saflufenacil (30 g a.i./ha) (Brachiaria decumbens [3]; 35 DAA): 0% | Observed efficacy (%) of Saflufenacil (30 g a.i./ha) (Brachiaria decumbens [1]; 3 DAA): 30% | Observed efficacy (%) of Saflufenacil (30 g a.i./ha) (Brachiaria decumbens [1]; 7 DAA): 30% | Observed efficacy (%) of Saflufenacil (30 g a.i./ha) (Brachiaria decumbens [1]; 14 DAA): 20% | Observed efficacy (%) of Saflufenacil (30 g a.i./ha) (Brachiaria decumbens [1]; 21 DAA): 5% | Observed efficacy (%) of Saflufenacil (30 g a.i./ha) (Brachiaria decumbens [1]; 28 DAA): 0% | Observed efficacy (%) of Saflufenacil (30 g a.i./ha) (Brachiaria decumbens [1]; 35 DAA): 0%

O=C(O)COc1nc(Cl)c(Cl)cc1Cl [Triclopyr]
Observed efficacy (%) of Triclopyr (228 g a.i./ha) (Brachiaria decumbens [2]; 3 DAA): 0% | Observed efficacy (%) of Triclopyr (228 g a.i./ha) (Brachiaria decumbens [2]; 7 DAA): 0% | Observed efficacy (%) of Triclopyr (228 g a.i./ha) (Brachiaria decumbens [2]; 14 DAA): 20% | Observed efficacy (%) of Triclopyr (228 g a.i./ha) (Brachiaria decumbens [2]; 21 DAA): 10% | Observed efficacy (%) of Triclopyr (228 g a.i./ha) (Brachiaria decumbens [2]; 28 DAA): 5% | Observed efficacy (%) of Triclopyr (228 g a.i./ha) (Brachiaria decumbens [2]; 35 DAA): 0%
